Assay results as given in ChEMBL document CHEMBL1201862, “PubChem BioAssay data set” (2004).
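All cell lines were grown in 96-well plates and treated with compound for 48 hours. GI50: concentration for 50% inhibition of growth.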 The source made the active and inactive calls. No stated cut-off is given here; in the data, active = GI50 up to about 1.1 µM and inactive = higher.

Assays:
Test in all cases: NCI tumour cell line growth inhibition, 48 h
[1] = system: DU-145
[2] = system: KM12
[3] = system: LOX IMVI
[4] = system: MCF7
[5] = system: EKVX
[6] = system: K562
[7] = system: OVCAR-4
[8] = system: NCI-H522
[9] = system: HOP-62
[10] = system: Hs-578T
[11] = system: RXF 393
[12] = system: SF-539
[13] = system: RPMI-8226
[14] = system: OVCAR-5
[15] = system: CAKI-1
[16] = system: 786-0
[17] = system: SK-MEL-2
[18] = system: NCI-H226
[19] = system: SF-295
[20] = system: PC-3
[21] = system: BT-549
[22] = system: SR
[23] = system: U-251
[24] = system: T47D
[25] = system: HCT-116
[26] = system: TK-10
[27] = system: SNB-75
[28] = system: COLO 205
[29] = system: M14
[30] = system: MDA-N
[31] = system: HL-60
[32] = system: SK-MEL-28
[33] = system: SF-268
[34] = system: SW-620
[35] = system: Malme-3M
[36] = system: MDA-MB-435
[37] = system: OVCAR-8
[38] = system: UACC-257
[39] = system: ACHN
[40] = system: SK-OV-3
[41] = system: OVCAR-3
[42] = system: NCI-H460
[43] = system: SNB-19
[44] = system: MOLT-4
[45] = system: NCI-H23
[46] = system: MDA-MB-231
[47] = system: HCT-15
[48] = system: A498
[49] = system: UACC-62
[50] = system: CCRF-CEM
[51] = system: UO-31
[52] = system: SN12C
[53] = system: HCC 2998
[54] = system: HT-29
[55] = system: NCI/ADR-RES
[56] = system: A549
[57] = system: SK-MEL-5
[58] = system: IGROV-1
[59] = system: HOP-92

## O=[N+]([O-])c1ncc(N(CCO)CCO)s1
[1]
  GI50: 65.9 µM (inactive)
[2]
  GI50: > 100 µM (inactive)
[3]
  GI50: 15.6 µM (inactive)
[4]
  GI50: 37 µM (inactive)
[5]
  GI50: > 100 µM (inactive)
[6]
  GI50: 20.8 µM (inactive)
[7]
  GI50: > 100 µM (inactive)
[8]
  GI50: 16.4 µM (inactive)
[9]
  GI50: 42.9 µM (inactive)
[10]
  GI50: 32.1 µM (inactive)
[11]
  GI50: 16.7 µM (inactive)
[12]
  GI50: 14.4 µM (inactive)
[13]
  GI50: 19.5 µM (inactive)
[14]
  GI50: 78.5 µM (inactive)
[15]
  GI50: > 100 µM (inactive)
[16]
  GI50: 34 µM (inactive)
[17]
  GI50: 21.6 µM (inactive)
[18]
  GI50: > 100 µM (inactive)
[19]
  GI50: > 100 µM (inactive)
[20]
  GI50: 41.3 µM (inactive)
[21]
  GI50: 26.5 µM (inactive)
[22]
  GI50: 43.8 µM (inactive)
[23]
  GI50: 45.3 µM (inactive)
[24]
  GI50: 27.5 µM (inactive)
[25]
  GI50: 37.1 µM (inactive)
[26]
  GI50: 34.9 µM (inactive)
[27]
  GI50: 30.8 µM (inactive)
[28]
  GI50: 21.9 µM (inactive)
[29]
  GI50: 34.8 µM (inactive)
[30]
  GI50: 30.3 µM (inactive)
[31]
  GI50: 17.7 µM (inactive)
[32]
  GI50: 16.4 µM (inactive)
[33]
  GI50: 40.3 µM (inactive)
[34]
  GI50: 33.3 µM (inactive)
[35]
  GI50: 18.2 µM (inactive)
[36]
  GI50: 34.8 µM (inactive)
[37]
  GI50: 53.5 µM (inactive)
[38]
  GI50: 25 µM (inactive)
[39]
  GI50: 37.7 µM (inactive)
[40]
  GI50: > 100 µM (inactive)
[41]
  GI50: 65.6 µM (inactive)
[42]
  GI50: 61.2 µM (inactive)
[43]
  GI50: > 100 µM (inactive)
[44]
  GI50: 36.6 µM (inactive)
[45]
  GI50: 41 µM (inactive)
[46]
  GI50: 67.8 µM (inactive)
[47]
  GI50: 33.3 µM
[48]
  GI50: 65.5 µM (inactive)
[49]
  GI50: 19.8 µM (inactive)
[50]
  GI50: 22.8 µM (inactive)
[51]
  GI50: 43.1 µM (inactive)
[52]
  GI50: 41.4 µM (inactive)
[53]
  GI50: 47 µM (inactive)
[54]
  GI50: 49.7 µM (inactive)

## O=Cc1ccc(-c2ccc(S(=O)(=O)O)cc2)o1
[1]
  GI50: > 100 µM (inactive)
[2]
  GI50: > 100 µM (inactive)
[3]
  GI50: > 100 µM (inactive)
[4]
  GI50: > 100 µM (inactive)
[5]
  GI50: > 100 µM (inactive)
[6]
  GI50: > 100 µM (inactive)
[55]
  GI50: > 100 µM (inactive)
[56]
  GI50: > 100 µM (inactive)
[8]
  GI50: > 100 µM (inactive)
[10]
  GI50: > 100 µM (inactive)
[11]
  GI50: > 100 µM (inactive)
[12]
  GI50: > 100 µM (inactive)
[13]
  GI50: > 100 µM (inactive)
[14]
  GI50: > 100 µM (inactive)
[15]
  GI50: > 100 µM (inactive)
[16]
  GI50: > 100 µM (inactive)
[17]
  GI50: > 100 µM (inactive)
[57]
  GI50: > 100 µM (inactive)
[18]
  GI50: > 100 µM (inactive)
[19]
  GI50: > 100 µM (inactive)
[20]
  GI50: > 100 µM (inactive)
[21]
  GI50: > 100 µM (inactive)
[22]
  GI50: > 100 µM (inactive)
[23]
  GI50: > 100 µM (inactive)
[25]
  GI50: > 100 µM (inactive)
[26]
  GI50: > 100 µM (inactive)
[28]
  GI50: > 100 µM (inactive)
[29]
  GI50: > 100 µM (inactive)
[30]
  GI50: > 100 µM (inactive)
[31]
  GI50: > 100 µM (inactive)
[32]
  GI50: > 100 µM (inactive)
[58]
  GI50: > 100 µM (inactive)
[33]
  GI50: > 100 µM (inactive)
[34]
  GI50: > 100 µM (inactive)
[35]
  GI50: > 100 µM (inactive)
[36]
  GI50: > 100 µM (inactive)
[37]
  GI50: > 100 µM (inactive)
[38]
  GI50: > 100 µM (inactive)
[39]
  GI50: > 100 µM (inactive)
[40]
  GI50: > 100 µM (inactive)
[41]
  GI50: > 100 µM (inactive)
[42]
  GI50: > 100 µM (inactive)
[43]
  GI50: > 100 µM (inactive)
[44]
  GI50: > 100 µM (inactive)
[45]
  GI50: > 100 µM (inactive)
[46]
  GI50: > 100 µM (inactive)
[47]
  GI50: > 100 µM
[48]
  GI50: > 100 µM (inactive)
[49]
  GI50: > 100 µM (inactive)
[50]
  GI50: > 10 µM (inactive)
[51]
  GI50: > 100 µM (inactive)
[52]
  GI50: > 100 µM (inactive)
[53]
  GI50: > 100 µM (inactive)
[54]
  GI50: > 100 µM (inactive)

## CC1(C)CCC2=C(O1)c1ccccc1/C(=N/c1ccc([N+](=O)[O-])cc1)C2=O
[2]
  GI50: 14.5 µM (inactive)
[4]
  GI50: 13.2 µM (inactive)
[5]
  GI50: 16.4 µM (inactive)
[6]
  GI50: 13.4 µM (inactive)
[55]
  GI50: 21.2 µM (inactive)
[56]
  GI50: 16.4 µM (inactive)
[7]
  GI50: 15.1 µM (inactive)
[8]
  GI50: 13.6 µM (inactive)
[9]
  GI50: 17.1 µM (inactive)
[10]
  GI50: 29 µM (inactive)
[11]
  GI50: 16.5 µM (inactive)
[59]
  GI50: 39.1 µM (inactive)
[15]
  GI50: 16.7 µM (inactive)
[16]
  GI50: 20 µM (inactive)
[17]
  GI50: 16.1 µM (inactive)
[57]
  GI50: 16.7 µM (inactive)
[18]
  GI50: 12.4 µM (inactive)
[20]
  GI50: 14 µM (inactive)
[21]
  GI50: 20.1 µM (inactive)
[22]
  GI50: 14.2 µM (inactive)
[23]
  GI50: 14.4 µM (inactive)
[24]
  GI50: 11.8 µM (inactive)
[25]
  GI50: 7.33 µM (inactive)
[26]
  GI50: 18.6 µM (inactive)
[27]
  GI50: 18.3 µM (inactive)
[29]
  GI50: 8.24 µM (inactive)
[30]
  GI50: 14.9 µM (inactive)
[31]
  GI50: 0.728 µM (active)
[32]
  GI50: 16.3 µM (inactive)
[58]
  GI50: 51.1 µM (inactive)
[33]
  GI50: 29.7 µM (inactive)
[34]
  GI50: 16.1 µM (inactive)
[35]
  GI50: 16 µM (inactive)
[37]
  GI50: 14 µM (inactive)
[38]
  GI50: 16.5 µM (inactive)
[39]
  GI50: 12.9 µM (inactive)
[40]
  GI50: 17.7 µM (inactive)
[41]
  GI50: 12.3 µM (inactive)
[42]
  GI50: 15.5 µM (inactive)
[43]
  GI50: 18.5 µM (inactive)
[44]
  GI50: 13.8 µM (inactive)
[46]
  GI50: 17.7 µM (inactive)
[47]
  GI50: 31 µM
[48]
  GI50: 18.7 µM (inactive)
[49]
  GI50: 14.7 µM (inactive)
[51]
  GI50: 10.6 µM (inactive)
[53]
  GI50: 17.7 µM (inactive)
[54]
  GI50: 12.7 µM (inactive)

## Nc1ccc(Oc2ccc(C3(c4ccc(Oc5ccc(N)cc5)cc4)C4CC5C6CC7CC5C3C(C7)C6C4)cc2)cc1
[1]
  GI50: 9.04 µM (inactive)
[2]
  GI50: 10.5 µM (inactive)
[3]
  GI50: 6.01 µM (inactive)
[4]
  GI50: 7.53 µM (inactive)
[5]
  GI50: 27 µM (inactive)
[6]
  GI50: 16 µM (inactive)
[55]
  GI50: > 100 µM (inactive)
[56]
  GI50: 0.706 µM (active)
[7]
  GI50: 18.8 µM (inactive)
[8]
  GI50: > 81.7 µM (inactive)
[9]
  GI50: 72.9 µM (inactive)
[10]
  GI50: 62.5 µM (inactive)
[11]
  GI50: 5.4 µM (inactive)
[12]
  GI50: 42.5 µM (inactive)
[13]
  GI50: 14.8 µM (inactive)
[59]
  GI50: 0.668 µM (active)
[14]
  GI50: > 100 µM (inactive)
[15]
  GI50: 39 µM (inactive)
[16]
  GI50: 9.66 µM (inactive)
[17]
  GI50: > 100 µM (inactive)
[57]
  GI50: 52.6 µM (inactive)
[18]
  GI50: > 55.8 µM (inactive)
[19]
  GI50: 54.8 µM (inactive)
[20]
  GI50: > 45.4 µM (inactive)
[21]
  GI50: > 100 µM (inactive)
[22]
  GI50: 9.2 µM (inactive)
[23]
  GI50: 1.03 µM (active)
[25]
  GI50: 18.3 µM (inactive)
[26]
  GI50: > 78 µM (inactive)
[27]
  GI50: > 100 µM (inactive)
[28]
  GI50: 42.4 µM (inactive)
[29]
  GI50: 3.87 µM (inactive)
[30]
  GI50: 14.5 µM (inactive)
[31]
  GI50: 14 µM (inactive)
[32]
  GI50: > 100 µM (inactive)
[58]
  GI50: > 52.1 µM (inactive)
[33]
  GI50: > 53.2 µM (inactive)
[34]
  GI50: 97.3 µM (inactive)
[35]
  GI50: > 78.3 µM (inactive)
[36]
  GI50: 19 µM (inactive)
[37]
  GI50: 4.97 µM (inactive)
[38]
  GI50: > 58.6 µM (inactive)
[39]
  GI50: 48.5 µM (inactive)
[41]
  GI50: 2.01 µM (inactive)
[42]
  GI50: 21.1 µM (inactive)
[43]
  GI50: 37.4 µM (inactive)
[44]
  GI50: 6.08 µM (inactive)
[45]
  GI50: 26.3 µM (inactive)
[46]
  GI50: 23.1 µM (inactive)
[47]
  GI50: 20.1 µM
[48]
  GI50: 4.01 µM (inactive)
[49]
  GI50: 38.4 µM (inactive)
[50]
  GI50: 2.62 µM (inactive)
[51]
  GI50: 5.24 µM (inactive)
[52]
  GI50: 12.1 µM (inactive)
[53]
  GI50: 1.07 µM (active)
[54]
  GI50: 0.774 µM (active)
